Reference: patent US20260285850A1, “SUBSTITUTED OXAZOLIDINONES AND IMIDAZOLINONES AS HERBICIDES” (FMC CORPORATION, priority 2023, published 2026)

Assays:
Assay type in all cases: in vivo
rice (Oryza sativa) = experiment: Test B flooded paddy test, visual plant response rating 0-100; details: 250 g ai/ha, Flood, applied to paddy water, evaluated after 13 days
How it was run: (§1)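 Paddy-water application: test compounds went directly into water flooded 3 cm above the soil surface, with plants at 2 leaves. After a 13-day greenhouse period, responses were judged by eye relative to controls; a dash marks an untested entry.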

[1] = test system: ducksalad (Heteranthera limosa); experiment: as above; details: 250 g ai/ha, Flood, applied to paddy water, evaluated after 13 days
How it was run: as §1

[2] = test system: barnyardgrass (Echinochloa crusgalli); experiment: as above; details: 250 g ai/ha, Flood, applied to paddy water, evaluated after 13 days
How it was run: as §1

[3] = test system: sedge, umbrella (small-flower umbrella sedge, Cyperus difformis); experiment: as above; details: 250 g ai/ha, Flood, applied to paddy water, evaluated after 13 days
How it was run: as §1

soybean (Glycine max) [4] = experiment: Test A preemergence soil spray, visual injury rating 0-100; details: 10 days
How it was run: (§2)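 Plants were grown in a loam soil-sand blend and treated with test chemical in a non-phytotoxic solvent mixture containing surfactant, either sprayed on soil preemergence or applied postemergence to 2-10 cm plants. After 10 days in a greenhouse, injury was scored visually against untreated controls, 0 meaning no effect and 100 complete control.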

[5] = test system: green foxtail (Setaria viridis); experiment: as above; details: 10 days
How it was run: as §2

[6] = test system: oat, wild (wild oat, Avena fatua); experiment: as above; details: 10 days
How it was run: as §2

[7] = test system: ragweed (common ragweed, Ambrosia artemisiifolia); experiment: as above; details: 10 days
How it was run: as §2

[8] = test system: blackgrass (Alopecurus myosuroides); experiment: as above; details: 10 days
How it was run: as §2

kochia (Bassia scoparia) [9] = experiment: as above; details: 10 days
How it was run: as §2

[10] = test system: ryegrass, Italian (italian ryegrass, Lolium multiflorum); experiment: as above; details: 10 days
How it was run: as §2

corn (Zea mays) [11] = experiment: as above; details: 10 days
How it was run: as §2

[12] = test system: wheat (Triticum aestivum); experiment: as above; details: 10 days
How it was run: as §2

[13] = test system: barnyardgrass (Echinochloa crus-galli); experiment: as above; details: 10 days
How it was run: as §2

soybean (Glycine max) [14] = experiment: Test A postemergence application, visual injury rating 0-100
How it was run: as §2

[15] = test system: green foxtail (Setaria viridis); experiment: as above
How it was run: as §2

[16] = test system: oat, wild (wild oat, Avena fatua); experiment: as above
How it was run: as §2

[17] = test system: ragweed (common ragweed, Ambrosia artemisiifolia); experiment: as above
How it was run: as §2

[18] = test system: galium (catchweed bedstraw, Galium aparine); experiment: as above
How it was run: as §2

[19] = test system: horseweed (Erigeron canadensis); experiment: as above
How it was run: as §2

[20] = test system: blackgrass (Alopecurus myosuroides); experiment: as above
How it was run: as §2

kochia (Bassia scoparia) [21] = experiment: as above
How it was run: as §2

[22] = test system: palmer (palmer amaranth, palmer pigweed, Amaranthus palmeri); experiment: as above
How it was run: as §2

[23] = test system: ryegrass, Italian (italian ryegrass, Lolium multiflorum); experiment: as above
How it was run: as §2

corn (Zea mays) [24] = experiment: as above
How it was run: as §2

[25] = test system: wheat (Triticum aestivum); experiment: as above
How it was run: as §2

[26] = test system: barnyardgrass (Echinochloa crus-galli); experiment: as above
How it was run: as §2

[27] = 62 g ai/ha, 0 = no effect, 100 = complete control
[28] = 62 g ai/ha, postemergence, 10 days, 0 = no effect, 100 = complete control
[29] = Postemergence, 16 g ai/ha, greenhouse 10 days, 0 no effect, 100 complete control

CC1(C(=O)NC2CC(C(=O)O)C2)CN(c2cc(F)cc(Cl)c2)C(=O)O1 (racemic) [Compound 139]
40: Ragweed plant response rating (0-100) [17, 28] | Ragweed plant response rating (0 to 100 scale) [17, 29]
60: Soybean plant response rating (0-100) (soybean (Glycine max) [14]; [28]) | Soybean plant response rating (0 to 100 scale) (soybean (Glycine max) [14]; [29])
10: Barnyardgrass plant response rating ([13]; 16 g ai/ha, 0 to 100 scale)
70: Barnyardgrass plant response rating (0-100) [13, 27] | Oat, Wild plant response rating (0 to 100 scale) [16, 29] | Kochia plant response rating (0 to 100 scale) (kochia (Bassia scoparia) [21]; [29]) | Pigweed, Palmer plant response rating (0-100) [22, 28] | Ryegrass, Italian plant response rating (0-100) [23, 28]
30: Foxtail, Green plant response rating ([5]; 16 g ai/ha, 0 to 100 scale) | Ryegrass, Italian plant response rating ([10]; 16 g ai/ha, 0 to 100 scale) | Ryegrass, Italian plant response rating (0 to 100 scale) [23, 29]
80: Oat, Wild plant response rating (0-100) [6, 27] | Blackgrass plant response rating (0-100) [8, 27] | Galium plant response rating (0-100) [18, 28]
100: Blackgrass plant response rating (0-100) [20, 28] | Corn plant response rating (0-100) (corn (Zea mays) [24]; [28]) | Corn plant response rating (0 to 100 scale) (corn (Zea mays) [24]; [29]) | Barnyardgrass plant response rating (0-100) [26, 28]
20: Oat, Wild plant response rating ([6]; 16 g ai/ha, 0 to 100 scale) | Blackgrass plant response rating ([8]; 16 g ai/ha, 0 to 100 scale) | Pigweed, Palmer plant response rating (0 to 100 scale) [22, 29]
0: Plant response rating, Rice (0 to 100 scale, 0 is no effect and 100 is complete control) (rice (Oryza sativa)) | Plant response rating, Ducksalad (0 to 100 scale, 0 is no effect and 100 is complete control) [1] | Plant response rating, Barnyardgrass (0 to 100 scale, 0 is no effect and 100 is complete control) [2] | Plant response rating, Sedge, Umbrella (0 to 100 scale, 0 is no effect and 100 is complete control) [3] | Soybean plant response rating (soybean (Glycine max) [4]; 16 g ai/ha, 0 to 100 scale) | Soybean plant response rating (0-100) (soybean (Glycine max) [4]; [27]) | Ragweed plant response rating ([7]; 16 g ai/ha, 0 to 100 scale) | Ragweed plant response rating (0-100) [7, 27] | Kochia plant response rating (kochia (Bassia scoparia) [9]; 16 g ai/ha, 0 to 100 scale) | Corn plant response rating (corn (Zea mays) [11]; 16 g ai/ha, 0 to 100 scale) | Horseweed plant response rating (0 to 100 scale) [19, 29]
90: Foxtail, Green plant response rating (0-100) [5, 27] | Kochia plant response rating (0-100) (kochia (Bassia scoparia) [9]; [27]) | Ryegrass, Italian plant response rating (0-100) [10, 27] | Corn plant response rating (0-100) (corn (Zea mays) [11]; [27]) | Wheat plant response rating ([12]; 16 g ai/ha, 0 to 100 scale) | Wheat plant response rating (0-100) [12, 27] | Foxtail, Green plant response rating (0-100) [15, 28] | Foxtail, Green plant response rating (0 to 100 scale) [15, 29] | Oat, Wild plant response rating (0-100) [16, 28] | Blackgrass plant response rating (0 to 100 scale) [20, 29] | Kochia plant response rating (0-100) (kochia (Bassia scoparia) [21]; [28]) | Wheat plant response rating (0-100) [25, 28] | Wheat plant response rating (0 to 100 scale) [25, 29] | Barnyardgrass plant response rating (0 to 100 scale) [26, 29]
50: Galium plant response rating (0 to 100 scale) [18, 29] | Horseweed plant response rating (0-100) [19, 28]
